Laboratory results: ChEMBL document CHEMBL1148258, “Synthesis of OSW-1 analogs with modified side chains and their antitumor activities” (Bioorg Med Chem Lett, 2004)
pIC50: −log10 of the molar value.

How the values were obtained:
Assay type in all cases: functional, cell-based
[1] = system: MCF7; experiment: In vitro antitumor activity of compound against MCF-7 cell line (human breast cancer cells)
[2] = system: AGS; experiment: In vitro antitumor activity of compound against AGS cell line (human stomach cancer cells)
[3] = system: BEL-7404 tumor cell line; experiment: In vitro antitumor activity of compound against 7404 cell line (human liver carcinoma cells)

| Compound | pIC50 ([1]; Homo sapiens, MCF7) | pIC50 ([2]; Homo sapiens, AGS) | pIC50 ([3]; Homo sapiens, BEL-7404) | pIC50 ([1]; mcf7) | pIC50 ([2]; ags) | pIC50 ([3]; bel-7404) |
| --- | --- | --- | --- | --- | --- | --- |
| COc1ccc(C(=O)OC2C(OC3C(O)COC(O[C@H]4CC5C6CC=C7C[C@@H](O)CC[C@]7(C)C6CC([C@H](C)C(=O)CCC(C)C)[C@]5(C)[C@@H]4O)C3OC(C)=O)OCC(O)C2O)cc1 (stereo partly drawn) | 6.57 | 5.85 | 7.00 |  |  |  |
| COc1ccc(C(=O)OC2C(OC3C(O)COC(O[C@H]4CC5C6CC=C7C[C@@H](O)CC[C@]7(C)C6CC([C@H](C)C(O)CCC(C)C)[C@]5(C)[C@@H]4O)C3OC(C)=O)OCC(O)C2O)cc1 (stereo partly drawn) | 5.75 | 5.14 | 5.73 |  |  |  |
| COc1ccc(C(=O)OC2C(OC3C(O)COC(O[C@H]4CC5C6CC=C7C[C@@H](O)CC[C@]7(C)C6CC([C@H](C)C(C)=O)[C@]5(C)[C@@H]4O)C3OC(C)=O)OCC(O)C2O)cc1 (stereo partly drawn) | 5.18 | 5.16 | 5.54 |  |  |  |
| CISPLATIN |  |  |  | 4.73 | 4.62 | 5.08 |

Continued, values first:

| pIC50 ([1]; Homo sapiens, MCF7) | pIC50 ([2]; Homo sapiens, AGS) | pIC50 ([3]; Homo sapiens, BEL-7404) | pIC50 ([1]; mcf7) | pIC50 ([2]; ags) | pIC50 ([3]; bel-7404) | Compound |
| --- | --- | --- | --- | --- | --- | --- |
| 7.70 | 5.72 | 7.49 |  |  |  | CCCC(=O)[C@@H](C)C1CC2C(CC=C3C[C@@H](O)CC[C@@]32C)C2C[C@H](OC3OCC(O)C(OC4OCC(O)C(O)C4OC(=O)c4ccc(OC)cc4)C3OC(C)=O)[C@@H](O)[C@]21C (stereo partly drawn) |
| 7.22 | 5.86 | 7.20 |  |  |  | COc1ccc(C(=O)OC2C(OC3C(O)COC(O[C@H]4CC5C6CC=C7C[C@@H](O)CC[C@]7(C)C6CC([C@H](C)CCCC(C)C)[C@]5(C)[C@@H]4O)C3OC(C)=O)OCC(O)C2O)cc1 (stereo partly drawn) |
